# Data reported in ChEMBL document CHEMBL3885861, “Open TG-GATES”.
# Species: Rattus norvegicus
# Experiment: Open TG-GATES - Regimen: Daily Repeat
# Format: toxicity, organism-based, Sprague-Dawley
# Design: regimen Daily Repeat, gender Male, age 6 weeks
# Conditions: in vivo, po, route gavage; for APTT / Bas / Eos / Fbg / Hb / Ht / Lym / MCHC / MCV / Mono / Neu / PT / Plat / RBC / Ret / WBC: tissue Blood; for KIDNEY_L / KIDNEY_R / KIDNEY_TOTAL: tissue Kidney; for LIVER: tissue Liver; for ALP / ALT / AST / BUN / CRE / Ca / Cl / DBIL / GLC / IP / K / LDH / Na / PL / RALB / TBIL / TG / TP / gamma-GTP: tissue Plasma
# [1] = 0 mg/kg, 72 h, dose level Control, time 3 day
# [2] = 0 mg/kg, […], dose level Control, time 7 day
# [3] = 0 mg/kg, […], dose level Control, time 14 day
# [4] = 0 mg/kg, […], dose level Control, time 28 day
# [5] = 100 mg/kg, 72 h, dose level Low, time 3 day
# [6] = 100 mg/kg, […], dose level Low, time 7 day
# [7] = 100 mg/kg, […], dose level Low, time 14 day
# [8] = 100 mg/kg, […], dose level Low, time 28 day
structure (smiles),measurement,setting,value
CN(C)C(=N)N=C(N)N [METFORMIN],TERMINAL_BW,[1],224.4 g
same,APTT,[1],16.8 s
same,Bas,[1],0.2%
same,Eos,[1],1%
same,Fbg,[1],246.8 mg/dL
same,Hb,[1],13.1 g/dL
same,Ht,[1],38.7%
same,Lym,[1],75.4%
same,MCHC,[1],34%
same,MCV,[1],64.1 fL
same,Mono,[1],3.4%
same,Neu,[1],19.6%
same,PT,[1],12.6 s
same,Plat,[1],121.6 x10_4/uL
same,RBC,[1],603.2 x10_4/ul
same,Ret,[1],6.9%
same,WBC,[1],114.3 x10_2/uL
same,KIDNEY_L,[1],1 g
same,KIDNEY_R,[1],1 g
same,KIDNEY_TOTAL,[1],2 g
same,LIVER,[1],10.6 g
same,ALP,[1],1345.6 IU/L
same,ALT,[1],69.8 IU/L
same,AST,[1],80.6 IU/L
same,BUN,[1],13 mg/dL
same,CRE,[1],0.2 mg/dL
same,Ca,[1],11 mg/dL
same,Cl,[1],104.6 meq/L
same,DBIL,[1],0.014 mg/dL
same,GLC,[1],184.8 mg/dL
same,IP,[1],8.5 mg/dL
same,K,[1],4 meq/L
same,LDH,[1],69.8 IU/L
same,Na,[1],140.8 meq/L
same,PL,[1],143.6 mg/dL
same,RALB,[1],2.5 g/dL
same,TBIL,[1],0.034 mg/dL
same,TG,[1],71.2 mg/dL
same,TP,[1],5.5 g/dL
same,gamma-GTP,[1],1 IU/L
same,TERMINAL_BW,[2],255.4 g
same,TERMINAL_BW,[3],310.2 g
same,TERMINAL_BW,[4],386.6 g
same,APTT,[2],16.6 s
same,Bas,[2],0%
same,Eos,[2],1.2%
same,Fbg,[2],272.8 mg/dL
same,Hb,[2],13.6 g/dL
same,Ht,[2],40.1%
same,Lym,[2],77.8%
same,MCHC,[2],34%
same,MCV,[2],64.1 fL
same,Mono,[2],3%
same,Neu,[2],17.6%
same,PT,[2],12 s
same,Plat,[2],126.8 x10_4/uL
same,RBC,[2],626.4 x10_4/ul
same,Ret,[2],6%
same,WBC,[2],90.7 x10_2/uL
same,APTT,[3],18.3 s
same,Bas,[3],0%
same,Eos,[3],0.8%
same,Fbg,[3],252.2 mg/dL
same,Hb,[3],14.1 g/dL
same,Ht,[3],40.7%
same,Lym,[3],77.8%
same,MCHC,[3],34.5%
same,MCV,[3],60.5 fL
same,Mono,[3],3.4%
same,Neu,[3],17.4%
same,PT,[3],12.3 s
same,Plat,[3],123 x10_4/uL
same,RBC,[3],674 x10_4/ul
same,Ret,[3],4.8%
same,WBC,[3],104.1 x10_2/uL
same,APTT,[4],17.2 s
same,Bas,[4],0.2%
same,Eos,[4],1.4%
same,Fbg,[4],260 mg/dL
same,Hb,[4],15 g/dL
same,Ht,[4],43.2%
same,Lym,[4],78.6%
same,MCHC,[4],34.7%
same,MCV,[4],56.9 fL
same,Mono,[4],2.6%
same,Neu,[4],16.8%
same,PT,[4],12.1 s
same,Plat,[4],103.4 x10_4/uL
same,RBC,[4],759.6 x10_4/ul
same,Ret,[4],2.5%
same,WBC,[4],118 x10_2/uL
same,KIDNEY_L,[2],1 g
same,KIDNEY_R,[2],1 g
same,KIDNEY_TOTAL,[2],2.1 g
same,KIDNEY_L,[3],1.2 g
same,KIDNEY_R,[3],1.2 g
same,KIDNEY_TOTAL,[3],2.4 g
same,KIDNEY_L,[4],1.4 g
same,KIDNEY_R,[4],1.4 g
same,KIDNEY_TOTAL,[4],2.8 g
same,LIVER,[2],11.7 g
same,LIVER,[3],14.4 g
same,LIVER,[4],15.6 g
same,ALP,[2],1433.2 IU/L
same,ALT,[2],43.2 IU/L
same,AST,[2],69.6 IU/L
same,BUN,[2],16.4 mg/dL
same,CRE,[2],0.2 mg/dL
same,Ca,[2],11.3 mg/dL
same,Cl,[2],105.2 meq/L
same,DBIL,[2],0.014 mg/dL
same,GLC,[2],187 mg/dL
same,IP,[2],7.8 mg/dL
same,K,[2],4.3 meq/L
same,LDH,[2],66.6 IU/L
same,Na,[2],141.4 meq/L
same,PL,[2],145.2 mg/dL
same,RALB,[2],2.7 g/dL
same,TBIL,[2],0.034 mg/dL
same,TG,[2],91 mg/dL
same,TP,[2],5.9 g/dL
same,gamma-GTP,[2],1 IU/L
same,ALP,[3],1342.2 IU/L
same,ALT,[3],43.2 IU/L
same,AST,[3],81 IU/L
same,BUN,[3],16.4 mg/dL
same,CRE,[3],0.2 mg/dL
same,Ca,[3],11 mg/dL
same,Cl,[3],105.2 meq/L
same,DBIL,[3],0.014 mg/dL
same,GLC,[3],188.2 mg/dL
same,IP,[3],7.1 mg/dL
same,K,[3],4 meq/L
same,LDH,[3],168 IU/L
same,Na,[3],142.8 meq/L
same,PL,[3],150.6 mg/dL
same,RALB,[3],2.7 g/dL
same,TBIL,[3],0.034 mg/dL
same,TG,[3],139.2 mg/dL
same,TP,[3],6 g/dL
same,gamma-GTP,[3],1 IU/L
same,ALP,[4],1085 IU/L
same,ALT,[4],41.8 IU/L
same,AST,[4],60.8 IU/L
same,BUN,[4],16 mg/dL
same,CRE,[4],0.2 mg/dL
same,Ca,[4],11.1 mg/dL
same,Cl,[4],105.4 meq/L
same,DBIL,[4],0.014 mg/dL
same,GLC,[4],176.2 mg/dL
same,IP,[4],6.6 mg/dL
same,K,[4],3.9 meq/L
same,LDH,[4],51.8 IU/L
same,Na,[4],145 meq/L
same,PL,[4],143.4 mg/dL
same,RALB,[4],2.7 g/dL
same,TBIL,[4],0.036 mg/dL
same,TG,[4],134.2 mg/dL
same,TP,[4],6.1 g/dL
same,gamma-GTP,[4],1 IU/L
same,TERMINAL_BW,[5],222.9 g
same,APTT,[5],16.7 s
same,Bas,[5],0.2%
same,Eos,[5],0.6%
same,Fbg,[5],255 mg/dL
same,Hb,[5],13.3 g/dL
same,Ht,[5],39.3%
same,Lym,[5],79%
same,MCHC,[5],33.9%
same,MCV,[5],64.1 fL
same,Mono,[5],3%
same,Neu,[5],16.6%
same,PT,[5],12.6 s
same,Plat,[5],114.7 x10_4/uL
same,RBC,[5],612.6 x10_4/ul
same,Ret,[5],6.7%
same,WBC,[5],119.8 x10_2/uL
same,KIDNEY_L,[5],0.9 g
same,KIDNEY_R,[5],0.9 g
same,KIDNEY_TOTAL,[5],1.9 g
same,LIVER,[5],10.6 g
same,ALP,[5],1574.6 IU/L
same,ALT,[5],56.2 IU/L
same,AST,[5],78.6 IU/L
same,BUN,[5],15 mg/dL
same,CRE,[5],0.2 mg/dL
same,Ca,[5],11 mg/dL
same,Cl,[5],105.6 meq/L
same,DBIL,[5],0.012 mg/dL
same,GLC,[5],173.2 mg/dL
same,IP,[5],8.3 mg/dL
same,K,[5],4 meq/L
same,LDH,[5],80.4 IU/L
same,Na,[5],141.8 meq/L
same,PL,[5],141.6 mg/dL
same,RALB,[5],2.6 g/dL
same,TBIL,[5],0.03 mg/dL
same,TG,[5],72.8 mg/dL
same,TP,[5],5.5 g/dL
same,gamma-GTP,[5],1 IU/L
same,TERMINAL_BW,[6],255.8 g
same,TERMINAL_BW,[7],319.6 g
same,TERMINAL_BW,[8],415.8 g
same,APTT,[6],18.8 s
same,Bas,[6],0%
same,Eos,[6],1%
same,Fbg,[6],277.8 mg/dL
same,Hb,[6],13.6 g/dL
same,Ht,[6],40.1%
same,Lym,[6],77.8%
same,MCHC,[6],33.9%
same,MCV,[6],63 fL
same,Mono,[6],3.4%
same,Neu,[6],17.8%
same,PT,[6],12.1 s
same,Plat,[6],130 x10_4/uL
same,RBC,[6],638 x10_4/ul
same,Ret,[6],5.1%
same,WBC,[6],97.2 x10_2/uL
same,APTT,[7],17.4 s
same,Bas,[7],0%
same,Eos,[7],1.2%
same,Fbg,[7],255.2 mg/dL
same,Hb,[7],13.9 g/dL
same,Ht,[7],40.1%
same,Lym,[7],77.6%
same,MCHC,[7],34.6%
same,MCV,[7],60.5 fL
same,Mono,[7],2.8%
same,Neu,[7],17.6%
same,PT,[7],12.2 s
same,Plat,[7],122.5 x10_4/uL
same,RBC,[7],662.2 x10_4/ul
same,Ret,[7],5%
same,WBC,[7],109.5 x10_2/uL
same,APTT,[8],17.7 s
same,Bas,[8],0.2%
same,Eos,[8],1%
same,Fbg,[8],259.2 mg/dL
same,Hb,[8],15 g/dL
same,Ht,[8],43%
same,Lym,[8],76.6%
same,MCHC,[8],34.8%
same,MCV,[8],56.3 fL
same,Mono,[8],3%
same,Neu,[8],18.6%
same,PT,[8],11.9 s
same,Plat,[8],100.3 x10_4/uL
same,RBC,[8],764.2 x10_4/ul
same,Ret,[8],2.6%
same,WBC,[8],134 x10_2/uL
same,KIDNEY_L,[6],1 g
same,KIDNEY_R,[6],1 g
same,KIDNEY_TOTAL,[6],2.1 g
same,KIDNEY_L,[7],1.3 g
same,KIDNEY_R,[7],1.3 g
same,KIDNEY_TOTAL,[7],2.6 g
same,KIDNEY_L,[8],1.5 g
same,KIDNEY_R,[8],1.5 g
same,KIDNEY_TOTAL,[8],3 g
same,LIVER,[6],12.7 g
same,LIVER,[7],15.1 g
same,LIVER,[8],17.9 g
same,ALP,[6],1216.2 IU/L
same,ALT,[6],59.4 IU/L
same,AST,[6],80.2 IU/L
same,BUN,[6],15.2 mg/dL
same,CRE,[6],0.2 mg/dL
same,Ca,[6],10.8 mg/dL
same,Cl,[6],105.8 meq/L
same,DBIL,[6],0.012 mg/dL
same,GLC,[6],189.8 mg/dL
same,IP,[6],7.9 mg/dL
same,K,[6],4.1 meq/L
same,LDH,[6],69.6 IU/L
same,Na,[6],142 meq/L
same,PL,[6],144 mg/dL
same,RALB,[6],2.6 g/dL
same,TBIL,[6],0.028 mg/dL
same,TG,[6],96.4 mg/dL
same,TP,[6],5.7 g/dL
same,gamma-GTP,[6],0.8 IU/L
same,ALP,[7],1413 IU/L
same,ALT,[7],51.8 IU/L
same,AST,[7],70.6 IU/L
same,BUN,[7],16.2 mg/dL
same,CRE,[7],0.2 mg/dL
same,Ca,[7],11 mg/dL
same,Cl,[7],104 meq/L
same,DBIL,[7],0.014 mg/dL
same,GLC,[7],182.4 mg/dL
same,IP,[7],7.2 mg/dL
same,K,[7],3.9 meq/L
same,LDH,[7],78.6 IU/L
same,Na,[7],142.6 meq/L
same,PL,[7],161 mg/dL
same,RALB,[7],2.7 g/dL
same,TBIL,[7],0.03 mg/dL
same,TG,[7],116 mg/dL
same,TP,[7],6 g/dL
same,gamma-GTP,[7],1.2 IU/L
same,ALP,[8],1072.4 IU/L
same,ALT,[8],46.4 IU/L
same,AST,[8],67.8 IU/L
same,BUN,[8],17.4 mg/dL
same,CRE,[8],0.2 mg/dL
same,Ca,[8],11.2 mg/dL
same,Cl,[8],104.6 meq/L
same,DBIL,[8],0.014 mg/dL
same,GLC,[8],184.2 mg/dL
same,IP,[8],6.7 mg/dL
same,K,[8],3.9 meq/L
same,LDH,[8],56.8 IU/L
same,Na,[8],145.6 meq/L
same,PL,[8],165.4 mg/dL
same,RALB,[8],2.8 g/dL
same,TBIL,[8],0.04 mg/dL
same,TG,[8],183.8 mg/dL
same,TP,[8],6.3 g/dL
same,gamma-GTP,[8],1 IU/L
